# System: HIF-2α HIS TAG-PASB Domain
# Assay: HIF-2α Scintillation Proximity Assay (SPA)
# Type: binding
# Experimental: The percent inhibition was determined and IC50 values were calculated using the Dotmatics system based on the following equation: % inhibition=[(high control−sample)/(high control−low control)]×100.
row,Compound,IC50 [nM]
1,"O=[N+]([O-])c1c(Oc2cc(F)cc(Cl)c2)ccc(C(F)(F)F)c1Cl [Compound 203, 2-Chloro-4-(3-chloro-5-fluorophenoxy)-3-nitro-1-(trifluoromethyl)benzene]",77
2,"O=[N+]([O-])c1c(Oc2cccc(Cl)c2)ccc(C(F)(F)F)c1Cl [Compound 204, 2-Chloro-4-(3-chlorophenoxy)-3-nitro-1-(trifluoromethyl)benzene 1,3-dichloro-2-nitro-4-(trifluoromethyl)benzene]",210
3,"CCS(=O)(=O)c1ccc(Oc2cc(F)cc(C#N)c2)c2c1C(O)CC2 (stereo not shown) [Compound 205, 3-((7-(Ethylsulfonyl)-1-hydroxy-2,3-dihydro-1H-inden-4-yl)oxy)-5-fluorobenzonitrile]",2400
4,"N#Cc1cc(F)cc(Oc2ccc(S(=O)(=O)C(F)F)c3c2CC(F)(F)[C@H]3N)c1 [Compound 207, (S)-3-((1-Amino-7-((difluoromethyl)sulfonyl)-2,2-difluoro-2,3-dihydro-1H-inden-4-yl)oxy)-5-fluorobenzonitrile]",500
5,"N#Cc1cc(F)cc(Oc2ccc(S(=O)(=O)C3CCC3)c3c2CCC3O)c1 (stereo not shown) [Compound 208, 3-((7-(Cyclobutylsulfonyl)-1-hydroxy-2,3-dihydro-1H-inden-4-yl)oxy)-5-fluorobenzonitrile]",> 100000
6,"CO[C@H]1c2c(S(C)(=O)=O)ccc(Oc3cc(F)cc(C#N)c3)c2CC1(F)F [Compound 210, (S)-3-((2,2-Difluoro-1-methoxy-7-(methylsulfonyl)-2,3-dihydro-1H-inden-4-yl)oxy)-5-fluorobenzonitrile]",17000
7,"CNS(=O)(=O)c1ccc(Oc2cc(F)cc(F)c2)c2c1C(O)CC2 (stereo not shown) [Compound 211, 7-(3,5-Difluorophenoxy)-3-hydroxy-N-methyl-2,3-dihydro-1H-indene-4-sulfonamide]",2100
8,"Cc1cc(Oc2cc(F)cc(C#N)c2)c2c(c1S(C)(=O)=O)C(O)C(F)(F)C2 (stereo not shown) [Compound 213, 3-((2,2-Difluoro-1-hydroxy-6-methyl-7-(methylsulfonyl)-2,3-dihydro-1H-inden-4-yl)oxy)-5-fluorobenzonitrile]",800
9,"N#Cc1cc(Oc2ccc(S(=O)(=O)C(F)(F)F)c3c2CCC3O)ccc1F (stereo not shown) [Compound 216, 2-Fluoro-5-((1-hydroxy-7-((trifluoromethyl)sulfonyl)-2,3-dihydro-1H-inden-4-yl)oxy)benzonitrile]",2700
10,"O=S(=O)(c1ccc(Oc2ccc(F)c(Cl)c2)c2c1C(O)CC2)C(F)(F)F (stereo not shown) [Compound 218, 4-(3-Chloro-4-fluorophenoxy)-7-((trifluoromethyl)sulfonyl)-2,3-dihydro-1H-inden-1-ol]",810
11,"CS(=O)(=O)c1cc(F)c(Oc2cc(F)cc(C#N)c2)c2c1C(O)C(F)(F)C2 (stereo not shown) [Compound 219, 3-Fluoro-5-((2,2,5-trifluoro-1-hydroxy-7-(methylsulfonyl)-2,3-dihydro-1H-inden-4-yl)oxy)benzonitrile]",17000
12,"N#Cc1cncc(Oc2ccc(S(=O)(=O)C(F)(F)F)c3c2CCC3O)c1 (stereo not shown) [Compound 220, 5-((1-Hydroxy-7-((trifluoromethyl)sulfonyl)-2,3-dihydro-1H-inden-4-yl)oxy)nicotinonitrile]",700
13,"N#Cc1cc(F)cc(Oc2ccc(Br)c3c2C(F)(F)C(F)(F)C3)c1 [Compound 248, 3-((7-Bromo-2,2,3,3-tetrafluoro-2,3-dihydro-1H-inden-4-yl)oxy)-5-fluorobenzonitrile]",17000
14,"CS(=O)(=O)c1ccc(Oc2cc(C#N)cc(C(F)F)c2)c2c1C(O)CC2 (stereo not shown) [Compound 249, 3-(Difluoromethyl)-5-((1-hydroxy-7-(methylsulfonyl)-2,3-dihydro-1H-inden-4-yl)oxy)benzonitrile]",880
15,"NS(=O)(=O)c1ccc(Oc2cc(F)cc(F)c2)c2c1C(O)CC2 (stereo not shown) [Compound 257, 7-(3,5-Difluorophenoxy)-3-hydroxy-2,3-dihydro-1H-indene-4-sulfonamide]",1900
16,"N#Cc1cc(F)cc(Oc2ccc(S(=N)(=O)C(F)(F)F)c3c2CCC3O)c1 (stereo not drawn) [Compound 258, 3-Fluoro-5-((1-hydroxy-7-(S-(trifluoromethyl)sulfonimidoyl)-2,3-dihydro-1H-inden-4-yl)oxy)benzonitrile]",410
17,"CS(=O)(=O)c1ccc(Oc2cc(F)cc(C#N)c2)c2c1C(=O)C(F)(Cl)C2 (stereo not shown) [Compound 269, 3-((2-chloro-2-fluoro-7-(methylsulfonyl)-1-oxo-2,3-dihydro-1H-inden-4-yl)oxy)-5-fluorobenzonitrile]",310
18,"C[S+]([O-])c1ccc(Oc2cc(F)cc(C#N)c2)c2c1[C@H](O)C(F)(F)C2 (stereo partly drawn) [Compound 272, 3-[(1S)-2,2-Difluoro-1-hydroxy-7-methylsulfinyl-indan-4-yl]oxy-5-fluoro-benzonitrile]",2000
19,"C=C1CC(O)c2c(S(C)(=O)=O)ccc(Oc3cc(F)cc(Cl)c3)c21 (stereo not shown) [Compound 280, 4-(3-chloro-5-fluorophenoxy)-3-methylene-7-(methylsulfonyl)-2,3-dihydro-1H-inden-1-ol]",3400
20,"N#CN=S(=O)(CF)c1ccc(Oc2cc(F)cc(C#N)c2)c2c1[C@H](O)CC2 (stereo partly drawn) [Compound 282, N—(((R)-7-(3-cyano-5-fluorophenoxy)-3-hydroxy-2,3-dihydro-1H-inden-4-yl)(fluoromethyl)(oxo)-λ^6-sulfanylidene)cyanamide]",7200
21,"N#CN=S(=O)(CF)c1ccc(Oc2cc(F)cc(C#N)c2)c2c1[C@H](O)CC2 (stereo partly drawn) [Compound 283, N—(((R)-7-(3-cyano-5-fluorophenoxy)-3-hydroxy-2,3-dihydro-1H-inden-4-yl)(fluoromethyl)(oxo)-λ^6-sulfanylidene)cyanamide]",1400
22,"CS(=O)(=O)c1ccc(Oc2cc(F)cc(C#N)c2)c2c1[C@H](O)C(F)(F)[C@H]2F [Compound 293, 3-fluoro-5-[(1S,3S)-2,2,3-trifluoro-1-hydroxy-7-methylsulfonyl-indan-4-yl]oxy-benzonitrile]",720
23,"CS(=O)(=O)c1ccc(Oc2cc(F)cc(C#N)c2)c2c1[C@H](O)C[C@@H]2F [Compound 295, 3-fluoro-5-[(1R,3S)-3-fluoro-1-hydroxy-7-methylsulfonyl-indan-4-yl]oxy-benzonitrile]",230

# Now from value to compound:
row,IC50 [nM],Compound
1,670,"O=S(=O)(c1ccc(Oc2ccc(F)cc2)c2c1C(O)CC2)C(F)(F)F (stereo not shown) [Compound 212, 4-(4-Fluorophenoxy)-7-((trifluoromethyl)sulfonyl)-2,3-dihydro-1H-inden-1-ol]"
2,230,"O=S(=O)(c1ccc(Oc2ccc(F)c(F)c2)c2c1C(O)CC2)C(F)(F)F (stereo not shown) [Compound 214, 4-(3,4-Difluorophenoxy)-7-((trifluoromethyl)sulfonyl)-2,3-dihydro-1H-inden-1-ol]"
3,4900,"O=S(=O)(c1ccc(Oc2ccc3[nH]ncc3c2)c2c1C(O)C(F)(F)C2)C(F)(F)F (stereo not shown) [Compound 238, 4-((1H-Indazol-5-yl)oxy)-2,2-difluoro-7-((trifluoromethyl)sulfonyl)-2,3-dihydro-1H-inden-1-ol]"
4,250,O=S(=O)(c1ccc(Oc2cccc3[nH]ncc23)c2c1C(O)C(F)(F)C2)C(F)(F)F (stereo not shown) [Compound 243]
5,1000,"O=S(=O)(c1ccc(Oc2c(F)ccc3[nH]ncc23)c2c1C(O)C(F)(F)C2)C(F)(F)F (stereo not shown) [Compound 244, 2,2-Difluoro-4-((5-fluoro-1H-indazol-4-yl)oxy)-7-((trifluoromethyl)sulfonyl)-2,3-dihydro-1H-inden-1-ol]"
6,1300,"N#Cc1cc(F)cc(Oc2ccc(S(=O)(=O)CCO)c3c2CC(F)(F)C3O)c1 (stereo not shown) [Compound 250, 3-((2,2-Difluoro-1-hydroxy-7-((2-hydroxyethyl)sulfonyl)-2,3-dihydro-1H-inden-4-yl)oxy)-5-fluorobenzonitrile]"
7,18000,"N#Cc1cncc(Oc2ccc(S(N)(=O)=O)c3c2CC(F)(F)[C@H]3O)c1 [Compound 253, (S)-7-((5-Cyanopyridin-3-yl)oxy)-2,2-difluoro-3-hydroxy-2,3-dihydro-1H-indene-4-sulfonamide]"
8,640,"O=S(=O)(c1ccc(Oc2cc(F)c(F)c3[nH]ncc23)c2c1C(O)C(F)(F)C2)C(F)(F)F (stereo not shown) [Compound 261, 4-((6,7-Difluoro-1H-indazol-4-yl)oxy)-2,2-difluoro-7-((trifluoromethyl)sulfonyl)-2,3-dihydro-1H-inden-1-ol]"
9,4900,"O=S(=O)(c1ccc(Oc2cc(F)cc3[nH]ncc23)c2c1C(O)C(F)(F)C2)C(F)(F)F (stereo not shown) [Compound 262, 2,2-Difluoro-4-((6-fluoro-1H-indazol-4-yl)oxy)-7-((trifluoromethyl)sulfonyl)-2,3-dihydro-1H-inden-1-ol]"
10,25,"O=S(=O)(c1ccc(Oc2cccc3[nH]ncc23)c2c1[C@H](O)C(F)(F)C2)C(F)(F)F [Compound 263, (S)-4-((1H-Indazol-4-yl)oxy)-2,2-difluoro-7-((trifluoromethyl)sulfonyl)-2,3-dihydro-1H-inden-1-ol]"
11,380,"O=S(=O)(c1ccc(Oc2c(F)ccc3[nH]ncc23)c2c1[C@H](O)C(F)(F)C2)C(F)(F)F [Compound 264, (S)-2,2-Difluoro-4-((5-fluoro-1H-indazol-4-yl)oxy)-7-((trifluoromethyl)sulfonyl)-2,3-dihydro-1H-inden-1-ol]"
12,3500,"N#Cc1cc(F)cc(Oc2ccc(S(=O)(=O)C(F)(F)F)c3c2CC(F)C3N)c1 (stereo not shown) [Compound 268, 3-((1-amino-2-fluoro-7-((trifluoromethyl)sulfonyl)-2,3-dihydro-1H-inden-4-yl)oxy)-5-fluorobenzonitrile]"
13,5600,"CS(=O)(=O)N=S(=O)(CF)c1ccc(Oc2cc(F)cc(C#N)c2)c2c1[C@H](O)C(F)(F)C2 (stereo partly drawn) [Compound 284, N—(((S)-7-(3-cyano-5-fluorophenoxy)-2,2-difluoro-3-hydroxy-2,3-dihydro-1H-inden-4-yl)(fluoromethyl)(oxo)-λ^6-sulfanylidene)methanesulfonamide]"
14,4900,"N#Cc1cc(F)cc(Oc2ccc(S(=O)(=O)C(F)(F)F)c3c2CC(F)(F)[C@H]3NCCO)c1 [Compound 291, 3-[(1S)-2,2-difluoro-1-(2-hydroxyethylamino)-7-(trifluoromethylsulfonyl)indan-4-yl]oxy-5-fluoro-benzonitrile]"
